Results taken from patent publication US12060334B2, “3-substituted phenazine derivatives as antimicrobial agents” (University of Florida Research Foundation, Incorporated, priority 2021, dated 2024).
Values after ≈ are worked out from the molar mass of the structure shown. Values joined by “and” are separate entries in the source; they are usually repeats but may differ in a detail not shown here. Identical values can stand only once. “Also recorded” adds a separate entry of the source. Like-named read-outs stand apart in the source and are kept apart here. Marks after values point to notes of the source that are not given here.

Key:
MRSA-1707 = assay: MIC susceptibility assay (broth microdilution); settings: 16 h; for MIC: Staphylococcus aureus, MRSA, read-out: MIC MRSA-1707, planktonic growth inhibition, 16 h, 37° C.; for MIC MRSA-1707: planktonic growth inhibition, 37° C.
Description: (§1) (MIC values were further supported by spectrophotometric readings at OD600). The concentration range tested for each HP compound during this study was 0.05 to 50 μM. DMSO served as our vehicle and negative control in each microdilution MIC assay. DMSO was serially diluted with a top concentration of 0.5% v/v.

E. faecalis OG1RF [1] = assay: MIC susceptibility assay (broth microdilution); settings: Enterococcus faecalis, 16 h, read-out: MIC E. faecalis OG1RF
Description: as §1

MRSA-44 = assay: MIC susceptibility assay (broth microdilution); settings: Staphylococcus aureus, 16 h, read-out: MIC MRSA-44
Description: as §1

S. aureus = assay: Antibacterial MIC, initial phenazine collection; assay type: cell-based; settings: Staphylococcus aureus; initial discovery; read-out: MIC against S. aureus
MRSE 35984 = assay: MIC susceptibility assay (broth microdilution); settings: Staphylococcus epidermidis, MRSE, 16 h, read-out: MIC MRSE 35984
Description: as §1

S. epidermidis = assay: Antibacterial MIC, initial phenazine collection; assay type: cell-based; settings: Staphylococcus epidermidis; initial discovery; read-out: MIC against S. epidermidis
[2] = pKa determination by UV-vis spectroscopy; assay type: physicochemical
Description: (c) pKa determination of select HP analogues.^36 Dissociation constants (pKa) for select HP analogues were determined using UV-vis spectroscopy and the Henderson-Hasselbalch equation. Buffers were prepared using potassium phosphate monobasic (KH2PO4) and sodium phosphate dibasic ([…]) in a 1:1 solution of water:methanol to achieve a pH range of 4.07 to 9.66 (ammonium hydroxide was added to prepare buffer pH over 9.80). Compounds were added from 10 mM stock solutions in dimethyl sulfoxide (25 μL) to 1975 μL of each buffer to each evaluate analogue to yield a final compound concentration of 125 μM. Full spectral scans were performed from 200 to 800 nm in 2 nm increments to determine λmax values for the protonated phenol (HA) and the deprotonated phenolate species (A^−). The change in absorption at each determined λmax in relation to pH was monitored in each buffer and plotted as absorbance versus pH for each species. The pKa was first estimated by determining the pH of the point of intersection of the two linear curves. The visual estimation was confirmed by plotting pH versus log [A^−/HA]. The resulting plot yielded a linear regression line with a Y-intercept corresponding to a calculated pKa value.

[3] = tested on: MRSA, MRSE and VRE strains; assay: MIC assays, summary statements over several Gram-positive strains; settings: for MICs against all Gram-positive strains in the panel: result in words
Description: as §1

S. aureus 138 = assay: MIC assay against clinical isolate; assay type: cell-based; settings: Staphylococcus aureus
S. aureus 147 = assay: MIC assay against clinical isolate; assay type: cell-based; settings: Staphylococcus aureus, 147; clinical isolate; read-out: MIC S. aureus 147
HepG2 cells = assay: Alamar Blue cytotoxicity assay, HepG2; settings: read-out: Hep G2 Cytotox. (IC50), 24-h
E. faecalis OG1RF [4] = assay: E. faecalis dorsal wound infection model in mice; settings: C57BL/6J mice, topical PEG ointment once a day, day 3
Description: (§2) In separate experiments, wounds were created on the mouse's dorsal mid-section using a biopsy punch to remove the dermal layer. The resulting wound was inoculated with either S. aureus UAMS-1 (1×10^7 CFU/mL), or E. faecalis OG1RF ([…] CFU/mL) to establish infection.
Enterococcus faecalis strain OG1RF was used in animal experiments during these investigations. Seven-week old female C57BL/6J mice were purchased from Jackson Laboratories Ltd. and housed according to the University of Florida's approved IACUC protocol 201709769.
E. faecalis Dorsal Wound Infection Model. […] On day 3 (2 days of treatment) post-infection, animals were euthanized and the wounds aseptically excised using a surgical blade and the tissues homogenized in 1 mL of sterile PBS. The homogenates were serially diluted and plated on trypticase soy (TSA) agar containing rifampicin and fusidic acid for bacterial enumeration.

MRSA 2 = assay: MIC assay against clinical isolate; assay type: cell-based, S. aureus; settings: Staphylococcus aureus
S. aureus 156 = assay: MIC assay against clinical isolate; assay type: cell-based; settings: Staphylococcus aureus, 156, read-out: MIC S. aureus 156
[5] = tested on: isdB, sfaA, sbnC, MW0695 transcripts in MRSA-1707 biofilms; assay: RT-qPCR of iron uptake genes in MRSA biofilms; settings: 4 h treatment at 1 μM or 1/10×MBEC
MRSA 1 = assay: MIC assay against clinical isolate; assay type: cell-based, S. aureus; settings: Staphylococcus aureus
human red blood cells = assay: Hemolysis assay with red blood cells
Description: Hemolysis assays are used to determine the membrane-lysis activity of a compound, which is of particular interest to this work as membrane-lysing agents (e.g., QACs) can eradicate biofilms.
Cytotoxicity Assay against HEK-293 Cells.^48 The viability of HEK-293 cells was assessed by the MTT assay. The cells were cultured in DMEM medium containing 10% fetal bovine serum and 100 U/mL penicillin and streptomycin. The cells (10^4 cells/well) were seeded onto a 96-well plate and maintained at 37° C. in a humidified incubator under 5% CO2 overnight. […] After incubation at 37° C. for 72 hours, 10 μL of MTT (5 mg/mL) in PBS was added to each well and incubated for 4 hours, followed by the aspiration of the medium. Dimethyl sulfoxide (DMSO, 100 μL) was then added to each well to dissolve the MTT in the wells, and the plate was agitated for 1 hour. The optical density (OD) was measured at 570 nm using a UV/vis microplate spectrophotometer (BioTek). The percent inhibition was calculated as follows: Inhibition (%)=(1−test OD570/non-treated OD570)×100%. The data were analyzed by Origin. Hemolysis Assay with Red Blood Cells. […] The washing was repeated three times with the buffer. In 96-well plate, test compounds were added to the buffer from DMSO stocks. […] The plate was then incubated for 1 hour at 37° C. After incubation, the plate was centrifuged for 5 minutes at 3,500 rpm before 80 μL of the supernatant was transferred to another 96-well plate to obtain an optical density (OD) read at 405 nm. DMSO served as the negative control (0% hemolysis) while Triton X served as the positive control (100% hemolysis) in these experiments. The percent hemolysis was calculated as (OD405 of the compound treated RBCs−OD405 DMSO control)/(OD405 Triton X treated RBCs−OD405 buffer) from three independent experiments.

J774 MΦ = assay: Alamar Blue cytotoxicity assay, J774 macrophages; settings: read-out: J774 MΦ Cytotox. (IC50), 24-h
S. aureus UAMS-1 = assay: S. aureus dermal (dorsal) wound infection model in mice; settings: BALB/c mice, topical 2% PEG ointment every 12 hours, three consecutive days
Description: as §2
Staphylococcus aureus strain UAMS-1, a well-characterized antibiotic susceptible clinical isolate commonly used to study the organism's biofilm formation and colonization properties, was used in animal experiments during these studies.^59 Female BALB/c mice 4 to 6 weeks of age were obtained from Charles River Laboratories International, Inc. (Wilmington, MA) and housed individually according to approved University of Rochester Medical Center Council on Animal Research (UCAR) protocol UCAR-101864/2017-022.
S. aureus Dermal Wound Infection Model. The effects of ointment compilations were evaluated for in vivo antimicrobial activity using a dermal wound infection mouse model, as previously described.^52 Briefly, mice were anesthetized by intraperitoneal injection with a mixture of 100 mg kg^−1 Ketamine (Hospira Inc., Lake Forest IL) and 10 mg kg^−1 Xylazine (Lloyd Laboratories, Shenandoah IA) in PBS. Two mg kg^−1 meloxicam (Henry Schein Animal Health, Portland, ME) was administered prior to dermal wounding. […]

Mtb CDC1551 = assay: microbe, parasite or virus in culture; assay type: cell-based, Mycobacterium tuberculosis
HEK-293 cells = assay: MTT cytotoxicity assay, HEK-293; settings: read-out: HEK-293 Cytotox. (IC50), 72-h
HeLa cells = assay: LDH release assay for HeLa cytotoxicity; settings: read-out: HeLa Cell Cytotox. (IC50), 24-h, tested at 25, 50 and 100 μM
S. aureus 129 = assay: MIC assay against clinical isolate; assay type: cell-based; settings: Staphylococcus aureus
MRSA 44 biofilms = assay: Calgary Biofilm Device (CBD) assay; settings: biofilm eradication in CBD assay
MRSE 35984 biofilms = assay: Calgary Biofilm Device (CBD) assay; settings: for MBC: Staphylococcus epidermidis, MRSE, read-out: MRSE 35984 MBC
[6] = tested on: E. faecalis OG1RF biofilms; assay: Calgary Biofilm Device (CBD) assay; settings: Enterococcus faecalis, OG1RFBIOFILMS, read-out: E.faecalis OG1RF MBC
VRE 700221 biofilms = assay: Calgary Biofilm Device (CBD) assay; settings: Enterococcus, read-out: VRE 700221 MBC
MRSA-1707 biofilms = assay: Calgary Biofilm Device (CBD) assay; settings: Staphylococcus aureus, read-out: MRSA-1707 MBC
[7] = tested on: isdB, sfaA, sbnC, MW0695 transcripts in MRSA-1707 biofilms; settings: at 5 μM, reported earlier; cited from earlier work
[8] = tested on: S. aureus strain ATCC 29213; assay: MIC against methicillin-susceptible strain; assay type: cell-based; settings: Staphylococcus aureus, ATCC29213; strain susceptible to methicillin
[9] = Mycobacterium tuberculosis, CDC1551, 120 h

Compound	MIC (MRSA-1707) [µM]	MIC (E. faecalis OG1RF [1]) [µM]	MIC (MRSA-44) [µM]	MIC (MRSE 35984) [µM]	MIC (S. aureus 138) [µM]	MIC (S. aureus 147) [µM]	MIC (MRSA 2) [µM]	MIC (S. aureus 156) [µM]	MIC (MRSA 1) [µM]	% Hemolysis at 200 μM (human red blood cells; human RBCs, 1 hour, 37° C.) [%]	MIC (S. aureus 129) [µM]	MBC [6] [µM]	other results
Oc1c(Br)ccc2nc3ccccc3nc12 [Compound 1, 2-bromo-1-hydroxyphenazine, reference compound]	3.13 (≈ 0.861 µg/mL)	18.8 (≈ 5.17 µg/mL)	3.13 (≈ 0.861 µg/mL)	3.13 (≈ 0.861 µg/mL)									MIC (S. aureus): 6.25 µM (≈ 1.72 µg/mL); MIC (S. epidermidis): 6.25 µM (≈ 1.72 µg/mL)
Cc1cccc2nc3c(O)c(Br)c(Cl)c(Br)c3nc12 [Compound 29, 2,4-Dibromo-3-chloro-6-methylphenazin-1-ol]		0.3 (≈ 0.121 µg/mL)	0.08 (≈ 0.0322 µg/mL)		0.08 (≈ 0.0322 µg/mL)	0.12 (≈ 0.0483 µg/mL)	0.12 (≈ 0.0483 µg/mL)	0.08 (≈ 0.0322 µg/mL)	0.06 (≈ 0.0241 µg/mL)	≤1	0.12 (≈ 0.0483 µg/mL)		pKa [2]: 6.79; MIC MRSA-1707 (MRSA-1707): 0.08^a μM; MIC ([3]; read-out: MIC against MRSA, MRSE and VRE strains): 0.05 to 0.1 µM (≈ 0.0201 to 0.0402 µg/mL); MIC ([3]; read-out: MIC against MRSA/MRSE strains): 0.075 µM (≈ 0.0302 µg/mL); MICs against all Gram-positive strains in the panel [3]: sub-micromolar; IC50 (HepG2 cells): > 200 µM; log10 reduction of E. faecalis OG1RF compared to vehicle control (E. faecalis OG1RF [4]): 1.73 log10; iron starvation / up-regulation of iron uptake genes in MRSA-1707 biofilms [5]: induction of iron starvation; also recorded: up-regulating iron uptake genes; also recorded: induced rapid iron starvation; also recorded: rapidly induce iron starvation; IC50 (J774 MΦ): > 200 µM; log10 reduction in CFU per lesion of S. aureus UAMS-1 compared to vehicle (S. aureus UAMS-1): 0.82 log10; MIC (Mtb CDC1551): 1.59 µM (≈ 0.64 µg/mL); MIC (Mtb CDC1551; [9]): 1.59 µM (≈ 0.64 µg/mL); IC50 (HEK-293 cells): 18.3 ± 5.8 µM; IC50 (HeLa cells): > 100 µM
Oc1c(Br)c(Cl)c(Br)c2nc3c(Cl)cc(Cl)cc3nc12 [Compound 34, 2,4-Dibromo-3,6,8-trichlorophenazin-1-ol]	0.59 (≈ 0.27 µg/mL)	0.3 (≈ 0.137 µg/mL)	0.15 (≈ 0.0686 µg/mL)	≤ 0.05	0.94 (≈ 0.43 µg/mL)	0.47 (≈ 0.215 µg/mL)	0.94 (≈ 0.43 µg/mL)	0.47 (≈ 0.215 µg/mL)	1.25 (≈ 0.572 µg/mL)	≤1	0.63 (≈ 0.288 µg/mL)	3.13 (≈ 1.43 µg/mL)	MIC MRSA-1707 (MRSA-1707): 0.59^a μM and 0.59 μM; MICs against all Gram-positive strains in the panel [3]: sub-micromolar; IC50 (HepG2 cells): > 200 µM; MRSA 44 MBEC (MRSA 44 biofilms): 6.25^b/6.25^b μM; log10 reduction of viable MRSE biofilm cells (MRSE 35984 biofilms; CFU counts from CBD pegs, at the MBEC value): 3.18±0.40 log10; MBC (MRSE 35984 biofilms): 0.59 µM (≈ 0.27 µg/mL); log10 reduction of viable CFUs, MRSE 35984 biofilm (MRSE 35984 biofilms; at 3.13 μM): ~5 log10; IC50 (J774 MΦ): > 200 µM; MIC (Mtb CDC1551; [9]): 0.8 µM (≈ 0.366 µg/mL); IC50 (HeLa cells): > 100 µM; MBC (VRE 700221 biofilms): 0.39 µM (≈ 0.178 µg/mL)
Oc1c(Br)c(Br)c(Br)c2nc3ccccc3nc12 [Compound 150]	0.1 (≈ 0.0433 µg/mL)			0.3 (≈ 0.13 µg/mL)									melting point: 222 to 224 °C
O=C(O)CN(CCN(CC(=O)O)CC(=O)O)CC(=O)O [EDTA, ethylenediaminetetraacetic acid, reference compound]		500 (≈ 146 µg/mL)	125 (≈ 36.5 µg/mL)									> 2000	MBC (MRSA-1707 biofilms): > 2000 µM; % Hemolysis at 200 μM (human red blood cells; human, 1 h, pH 7.2): ≤1%; up-regulation of panel of iron uptake genes [7]: did not upregulate this panel of iron uptake genes; MBC (MRSE 35984 biofilms): 1000 µM (≈ 292 µg/mL)
COc1cccc(OC)c1C(=O)N[C@@H]1C(=O)N2[C@@H]1SC(C)(C)[C@@H]2C(=O)O [Methicillin, reference compound]					37.5 (≈ 14.3 µg/mL)	6.25 (≈ 2.38 µg/mL)	> 100	37.5 (≈ 14.3 µg/mL)	37.5 (≈ 14.3 µg/mL)		37.5 (≈ 14.3 µg/mL)		MIC [8]: 0.78 µM (≈ 0.297 µg/mL)
c1ccc(CN(CCN(Cc2ccccn2)Cc2ccccn2)Cc2ccccn2)nc1 [TPEN, N,N,N′,N′-tetrakis(2-pyridinylmethyl)-1,2-ethanediamine, reference compound]	46.9 (≈ 19.9 µg/mL)	46.9 (≈ 19.9 µg/mL)	46.9 (≈ 19.9 µg/mL)							≤1		500 (≈ 212 µg/mL)	MBC (MRSA-1707 biofilms): 375 µM (≈ 159 µg/mL); up-regulation of panel of iron uptake genes [7]: did not upregulate this panel of iron uptake genes; MBC (VRE 700221 biofilms): 188 µM (≈ 79.8 µg/mL)
